This is an account of results in patent US11286248B2, “Pyrazine-2(1H)-ketone compound acting as FGFR inhibitor” (ZHANGZHOU PIEN TZE HUANG PHARMACEUTICAL CO., LTD., priority 2018, dated 2022).

Holding throughout (format): biochemical
Experiment [1] concerns the target T1, FGFR2 (Homo sapiens, UniProt P21802).
T1 construct: purchased Invitrogen PV3368
The experiment is described as follows: 33P isotope-labeled kinase activity test (Reaction Biology Corp), wild-type FGFR2. Particulars: for Selectivity FGFR1/2: ratio of IC50 FGFR1 to IC50 FGFR2; for IC50: wild-type kinase, 33P-ATP 5 μM, substrate pEY + Mn, 120 minutes at room temperature.

Experiment [2] addresses T2, FGFR3 (Homo sapiens, UniProt P22607).
T2 construct: purchased Invitrogen PV3145
The experiment is described as follows: 33P isotope-labeled kinase activity test (Reaction Biology Corp), wild-type FGFR3. Particulars: for Selectivity FGFR1/3: ratio of IC50 FGFR1 to IC50 FGFR3; for IC50: wild-type kinase, 33P-ATP 30 μM, substrate pEY + Mn, 120 minutes at room temperature.

The target in experiment [3] is T3, human FGFR1 (Homo sapiens, UniProt P11362).
T3 construct: purchased Invitrogen PV3146
T3 sequence (P11362 22-822): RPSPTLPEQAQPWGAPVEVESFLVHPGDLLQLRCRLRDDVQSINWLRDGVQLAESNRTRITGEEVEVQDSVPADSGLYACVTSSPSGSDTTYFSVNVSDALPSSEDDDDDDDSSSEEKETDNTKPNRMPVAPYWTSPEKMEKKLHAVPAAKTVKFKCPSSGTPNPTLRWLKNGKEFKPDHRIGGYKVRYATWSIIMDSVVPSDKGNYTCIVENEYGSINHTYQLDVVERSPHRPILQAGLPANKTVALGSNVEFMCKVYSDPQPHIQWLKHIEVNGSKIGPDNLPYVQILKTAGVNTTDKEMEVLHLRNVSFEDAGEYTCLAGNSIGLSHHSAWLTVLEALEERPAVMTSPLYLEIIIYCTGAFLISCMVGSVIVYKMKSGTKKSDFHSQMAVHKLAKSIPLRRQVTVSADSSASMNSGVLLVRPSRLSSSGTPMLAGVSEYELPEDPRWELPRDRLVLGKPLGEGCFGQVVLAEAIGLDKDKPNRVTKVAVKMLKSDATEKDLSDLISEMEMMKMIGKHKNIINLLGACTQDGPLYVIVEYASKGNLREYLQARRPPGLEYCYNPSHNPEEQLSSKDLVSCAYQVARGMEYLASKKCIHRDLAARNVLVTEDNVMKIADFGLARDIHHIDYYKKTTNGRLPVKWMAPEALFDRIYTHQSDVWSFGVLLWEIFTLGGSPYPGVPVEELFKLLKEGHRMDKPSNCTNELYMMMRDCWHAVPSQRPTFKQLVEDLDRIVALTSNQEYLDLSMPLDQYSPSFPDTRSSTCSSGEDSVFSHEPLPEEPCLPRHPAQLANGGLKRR
The experiment is described as follows: 33P isotope-labeled kinase activity test (Reaction Biology Corp), wild-type FGFR1. Particulars: 33P-ATP 5 μM, substrate pEY + Mn, 120 minutes at room temperature. The protocol: The IC50 value is determined using ^33P isotope-labeled kinase activity test (Reaction Biology Corp) to evaluate the inhibitory ability of the compounds to be tested on human FGFR1 and FGFR4.
Buffer conditions: 20 mM 4-(2-hydroxyethyl)-1-piperazineethanesulfonic acid (Hepes) (pH 7.5), 10 mM MgCl2, 1 mM ethylene glycol-bis-(2-aminoethyl ether)tetraacetic acid (EGTA), 0.02% polyoxyethylene lauryl ether (Brij35), 0.02 mg/ml bovine serum albumin (BSA), 0.1 mM sodium vanadate (Na3VO4), 2 mM dithiothreitol (DTT), and 1% DMSO.
Test steps: At room temperature, the compounds to be tested are dissolved in DMSO to prepare a 10 mM solution for use. The substrate is dissolved in the newly prepared buffer, and the kinase to be tested is added and mixed well. The DMSO solution in which the compounds to be tested are dissolved is added to the above-mentioned homogeneous reaction solution using acoustic technology (Echo 550). […] After incubating for 15 minutes, ^33P-ATP (activity: 0.01 μCi/μl, with corresponding concentration being listed in table 1) is added to start the reaction. The supplier article number, batch number, and the concentration information in the reaction solution of FGFR1, FGFR4 and substrates thereof are listed in table 1. […] The kinase activity data is expressed by comparing the kinase activity of the groups containing the compounds to be tested with that of the blank group (containing only DMSO). The IC50 value is obtained by curve fitting using Prism4 software (GraphPad), and the experimental results are shown in table 2.

Counter-ions that a name gives are not always drawn. Where only a bound is given, the exact number is not on record here.

What is called IC50 is the point on the concentration scale where inhibition reaches its midpoint.

T1 sequence (P21802 22-821): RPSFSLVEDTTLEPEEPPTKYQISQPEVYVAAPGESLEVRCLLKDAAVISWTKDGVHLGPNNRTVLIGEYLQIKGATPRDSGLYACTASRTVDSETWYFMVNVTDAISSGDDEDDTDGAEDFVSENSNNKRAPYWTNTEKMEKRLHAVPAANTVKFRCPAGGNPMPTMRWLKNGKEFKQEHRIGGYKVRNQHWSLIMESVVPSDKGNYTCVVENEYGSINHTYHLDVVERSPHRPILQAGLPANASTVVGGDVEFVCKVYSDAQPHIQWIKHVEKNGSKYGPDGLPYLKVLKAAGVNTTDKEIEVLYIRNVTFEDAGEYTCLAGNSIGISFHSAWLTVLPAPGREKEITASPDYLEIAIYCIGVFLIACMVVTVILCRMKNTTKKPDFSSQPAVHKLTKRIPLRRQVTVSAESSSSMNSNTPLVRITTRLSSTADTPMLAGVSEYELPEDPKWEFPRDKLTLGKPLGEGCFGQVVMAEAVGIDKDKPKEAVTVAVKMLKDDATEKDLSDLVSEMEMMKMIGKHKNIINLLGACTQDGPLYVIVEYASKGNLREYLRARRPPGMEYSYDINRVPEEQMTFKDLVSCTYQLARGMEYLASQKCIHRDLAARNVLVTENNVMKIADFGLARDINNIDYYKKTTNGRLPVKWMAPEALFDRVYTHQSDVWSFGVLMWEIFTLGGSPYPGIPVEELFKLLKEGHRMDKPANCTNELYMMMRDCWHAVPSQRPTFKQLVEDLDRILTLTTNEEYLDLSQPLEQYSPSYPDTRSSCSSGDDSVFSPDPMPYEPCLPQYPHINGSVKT
T2 sequence (P22607 23-806): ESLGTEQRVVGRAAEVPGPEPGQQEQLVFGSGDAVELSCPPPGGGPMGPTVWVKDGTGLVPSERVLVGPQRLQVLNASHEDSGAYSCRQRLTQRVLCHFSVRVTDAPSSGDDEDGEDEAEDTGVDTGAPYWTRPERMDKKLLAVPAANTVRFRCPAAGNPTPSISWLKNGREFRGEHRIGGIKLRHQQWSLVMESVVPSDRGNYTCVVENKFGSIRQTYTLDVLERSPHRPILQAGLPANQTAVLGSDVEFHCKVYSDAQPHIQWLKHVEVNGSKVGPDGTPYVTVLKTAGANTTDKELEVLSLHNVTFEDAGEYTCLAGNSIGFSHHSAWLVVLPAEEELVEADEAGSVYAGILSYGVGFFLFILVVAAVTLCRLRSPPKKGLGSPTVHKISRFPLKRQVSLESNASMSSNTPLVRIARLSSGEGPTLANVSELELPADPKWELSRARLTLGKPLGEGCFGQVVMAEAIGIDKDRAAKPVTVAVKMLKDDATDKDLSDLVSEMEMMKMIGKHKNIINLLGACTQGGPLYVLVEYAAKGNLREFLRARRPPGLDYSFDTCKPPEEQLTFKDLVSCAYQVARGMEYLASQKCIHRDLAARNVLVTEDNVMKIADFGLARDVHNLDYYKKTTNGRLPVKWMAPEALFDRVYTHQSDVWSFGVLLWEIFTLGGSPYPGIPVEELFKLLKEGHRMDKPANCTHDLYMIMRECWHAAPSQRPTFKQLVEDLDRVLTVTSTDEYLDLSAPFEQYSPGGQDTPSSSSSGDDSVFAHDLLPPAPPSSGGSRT

As for `COc1cc(OC)cc(-c2nc(-c3nc(-c4cn(CC(O)CC(F)(F)F)nc4C)cnc3N)cn(C)c2=O)c1` (single isomer, unassigned) [compound 0062], in experiment [1], the “Selectivity FGFR1/2” value came to 5.47 and the IC50 was 11.2 nM. For the same compound, in experiment [2], the “Selectivity FGFR1/3” value was found to be 8.40 and the IC50 amounted to 7.33 nM. Moreover, in experiment [3], the IC50 was determined as 61.6 nM.
Taken in the same sequence, the figures for `COc1cc(OC)cc(-c2nc(-c3nc(-c4cn(CC(O)CC(F)(F)F)nc4C)cnc3N)cn(C)c2=O)c1` (single isomer, unassigned) [compound 0063] were 4.39, 16.1 nM, 5.78, 12.3 nM and 70.8 nM.
Taken in the same sequence, the figures for `COc1cc(OC)cc(-c2nc(-c3nc(-c4cnn(CC(O)CC(F)(F)F)c4C)cnc3N)cn(C)c2=O)c1` (single isomer, unassigned) [compound 0064] were 7.97, 22.7 nM, 11.18, 16.2 nM and 181 nM.
Taken in the same sequence, the figures for `COc1cc(OC)cc(-c2nc(-c3nc(-c4cnn(CC(O)CC(F)(F)F)c4C)cnc3N)cn(C)c2=O)c1` (single isomer, unassigned) [compound 0065] were 7.56, 53.9 nM, 9.01, 45.2 nM and 407 nM.
With `COc1cc(OC)cc(-c2nc(-c3nc(-c4cn(C)nc4C)cnc3N)cn(C)c2=O)c1` [Hydrochloride salt of 0023], in experiment [1], the “Selectivity FGFR1/2” value is 5.11 and the IC50 came to 32.1 nM. For the same compound, in experiment [2], the “Selectivity FGFR1/3” value was 5.52 and the IC50 was found to be 29.8 nM. In addition, in experiment [3], the IC50 was 164 nM.
Taken in the same sequence, the figures for `COc1cc(OC)cc(-c2nc(-c3nc(-c4cnc5c(c4)CC(=O)N5C)cnc3N)cn(C)c2=O)c1` [Hydrochloride salt of 0033] were 7.27, 314 nM, 19.15, 119 nM and 2280 nM.
`COc1cc(OC)cc(-c2nc(-c3nc(-c4cccnc4)cnc3N)cn(C)c2=O)c1` [Trifluoroacetate salt of 0018]: in experiment [1], the “Selectivity FGFR1/2” value came to 48.27 and the IC50 was 15.1 nM. For the same compound, in experiment [2], the “Selectivity FGFR1/3” value came to 89.67 and the IC50 turned out to be 8.11 nM. For the same compound, in experiment [3], the IC50 was 727 nM.
Taken in the same sequence, the figures for `COc1cc(OC)c(F)c(-c2nc(-c3nc(-c4cn(C)nc4C)cnc3N)cn(C)c2=O)c1` [Trifluoroacetate salt of 0029] were 4.14, 0.56 nM, 1.52, 1.54 nM and 2.33 nM.
Taken in the same sequence, the figures for `COc1cc(OC)cc(-c2nc(-c3nc(-c4cnn(C5CCN(C)CC5)c4C)cnc3N)cn(C)c2=O)c1` [Trifluoroacetate salt of 0031] were 4.15, 44 nM, 6.57, 27.8 nM and 183 nM.
With `COc1cc(OC)c(Cl)c(-c2nc(-c3nc(-c4ccc(C5CCN(C)CC5)nc4)cnc3N)cn(C)c2=O)c1` [Trifluoroacetate salt of 0060], in experiment [1], the “Selectivity FGFR1/2” value amounted to 5.78 and the IC50 is 0.533 nM. Moreover, in experiment [2], the “Selectivity FGFR1/3” value was determined as 3.26 and the IC50 came to 0.944 nM. Further, the concentration for half-maximal inhibition (IC50) in experiment [3] amounted to 3.08 nM.
Turning to `COc1cc(OC)cc(-c2nc(-c3nc(-c4cnn(C)c4)cnc3N)cn(C)c2=O)c1` [compound 0017], in experiment [1], the “Selectivity FGFR1/2” value is recorded as 8.95 and the IC50 is 8.79 nM. Moreover, in experiment [2], the “Selectivity FGFR1/3” value is given as 12.48 and the IC50 turned out to be 6.31 nM. Also, the IC50 in experiment [3] is 78.7 nM.
Taken in the same sequence, the figures for `COc1cc(OC)cc(-c2nc(-c3nc(-c4cn(C5CCNCC5)nc4C)cnc3N)cn(C)c2=O)c1` [compound 0028] were 7.05, 7.66 nM, 5.12, 10.5 nM and 54 nM.
Regarding `COCCN1CCC(n2cc(-c3cnc(N)c(-c4cn(C)c(=O)c(-c5cc(OC)cc(OC)c5)n4)n3)c(C)n2)CC1` [compound 0035], in experiment [1], the “Selectivity FGFR1/2” value came out at 5.02 and the IC50 was 5.83 nM. In experiment [2], the “Selectivity FGFR1/3” value is 5.81 and the IC50 worked out at 5.04 nM. In addition, the IC50 in experiment [3] is 29.3 nM.
Taken in the same sequence, the figures for `CCNC(=O)c1ccc(-c2cnc(N)c(-c3cn(C)c(=O)c(-c4cc(OC)cc(OC)c4)n3)n2)cn1` [compound 0038] were above 68.4, 146 nM, above 978.5, 10.2 nM and above 10000 nM.
Taken in the same sequence, the figures for `COc1cc(OC)cc(-c2nc(-c3nc(-c4cn(CC5(C#N)CC5)nc4C)cnc3N)cn(C)c2=O)c1` [compound 0043] were 4.17, 12.7 nM, 6.63, 7.99 nM and 53 nM.
For `COc1cc(OC)cc(-c2nc(-c3nc(-c4cn(CCO)nc4C)cnc3N)cn(C)c2=O)c1` [compound 0048], in experiment [1], the “Selectivity FGFR1/2” value turned out to be 4.79 and the concentration for half-maximal inhibition (IC50) stood at 56.1 nM. In experiment [2], the “Selectivity FGFR1/3” value came out at 4.65 and the IC50 amounted to 57.8 nM. Besides, the IC50 in experiment [3] is 269 nM.
Taken in the same sequence, the figures for `COc1cc(OC)cc(-c2nc(-c3nc(-c4cnn(CCO)c4C)cnc3N)cn(C)c2=O)c1` [compound 0049] were 3.07, 65.5 nM, 5.85, 34.3 nM and 201 nM.
Taken in the same sequence, the figures for `COc1cc(OC)cc(-c2nc(-c3nc(-c4cnn(CC5(C#N)CC5)c4C)cnc3N)cn(C)c2=O)c1` [compound 0051] were 4.48, 6.54 nM, 7.12, 4.11 nM and 29.3 nM.
Taken in the same sequence, the figures for `COc1cc(OC)cc(-c2nc(-c3nc(-c4cncc(C)c4)cnc3N)cn(C)c2=O)c1` [compound 0056] were 10.62, 11.9 nM, 11.76, 10.8 nM and 126 nM.
Regarding `COc1cc(OC)cc(-c2nc(-c3nc(-c4ccc(C5(C#N)CCC5)nc4)cnc3N)cn(C)c2=O)c1` [compound 0059], the IC50 in experiment [1] is 3060 nM; in experiment [2], 49.4 nM; in experiment [3], above 10000 nM.
